Where two headings read alike, the source gives them in different places.
Experiments:
FGFR1 active kinase [1] = molecular target: T1, FGFR1 active kinase (Homo sapiens, UniProt P11362); assay: FGFR Kinase assay - Caliper; assay type: biochemical; on FGFR Kinase assay - Caliper, IC50: 408 µM ATP
[2] = molecular target: T2, His6-tagged FGFR kinase domain (Homo sapiens, UniProt P11362, C488A/C584S); assay: FGFR Kinase assay - Elisa; assay type: biochemical
T2 construct: FGFR kinase domain (amino acids 458-765, C488A, C584S) N-terminally fused to a His6-tag and TEV cleavage site; His6-tag plus linker and TEV cleavage site (printed as X1); made in house
Procedure: To determine inhibition of FGFR activity, kinase assays were conducted using ELISA (Enzyme-Linked Immunosorbent Assay) technology.
Kinase activity assays were performed in 384-well polypropylene plates (Matrix, Catalogue No. 4311. Matrix are part of Thermo Fisher Scientific, 22 Friars Drive, Hudson, N.H. 03051, USA) with a total volume of 40 μl in each well. Each well was coated with 2 μg of polyEAY substrate (Sigma, Catalogue No. P3899) at 4° C. overnight. The plates were then washed once with 100 μl PBS and once with 100 μl 50 mM HEPES (pH 7.4) prior to the addition of the kinase assay reagents. Reactions contained His6-tagged FGFR kinase domain (FGFR kinase domain (amino acids 458-765, C488A, C584S) N-terminally fused to a His6-tag and TEV cleavage site encoded by the following sequence; [[…]]. The final alanine denotes the start of the FGFR protein sequence. The resultant protein was expressed and purified based on Mohammadi et al, Cell Vol 86, 577-587 (1996). Each kinase reaction contained 0.1 ng His6-tagged FGFR kinase domain, 50 mM HEPES (pH 7.4), 0.1 mM Na3VO4, 0.1 mM DTT, 0.05% (v/v) Triton X100, 20 mM MgCl2, 160 μM ATP. Various concentrations of test compounds were each added in 5% (v/v) DMSO to yield a final assay DMSO concentration of 1.25% (v/v). The kinase reactions were incubated at room temperature for 45 minutes and stopped by washing the plate three times with 100 μl PBS plus 0.05% Tween. 40 μl of a one in 10000 dilution of 4G10-HRP antibody (Upstate Biotechnology, UBI 16-105. Upstate are part of Millipore Corporation, 290 Concord Road, Billerca Mass. 01821 USA) made up in 0.5% (w/v) BSA/PBS was then added to each well and the plates incubated at room temperature for one hour. Following this, the plates were then washed repeatedly with 100 μl PBS plus 0.05% Tween to remove all traces of the antibody solution. 40 μl of 50 μg/ml 3,3′,5,5′-Tetramethylbenzidine (Sigma, Catalogue No. T2885), 0.05M phosphate-citrate buffer, containing 0.03% sodium perborate was added to each well and the plates incubated at room temperature for twelve minutes. The colour reaction was stopped by the addition of 20 μl 2M H2SO4 and the plates read at 450 nm on a Spectrafluor Plus (Tecan Trading AG, Switzerland). In the assay, compounds were tested at a range of concentrations.
Percentage inhibition at 1 uM, as expressed herein, is a calculated value based on the curve fit that was generated experimentally. From the fitted curve plot, the effect of compound at a concentration of 1 uM was calculated as a percentage inhibition. The IC50 value is the concentration of test compound that inhibits 50% of FGFR kinase activity.

[3] = test system: bFGF stimulated Erk phosphorylation in NIH 3T3 cells; assay: Cell pErk - growth factor stimulated Erk phosphorylation; assay type: cell-based; details: Mus musculus
Excerpt: Cell Assays Cell pErk—Growth Factor Stimulated Erk Phosphorylation
These and other assays were used to evaluate the ability of a test compound to inhibit growth factor stimulated cellular signalling in mammalian cell lines. This was achieved by measuring the amount of receptor tyrosine kinase regulated Erk phosphorylation within a cell following compound treatment.
NIH 3T3 (ECACC, 93061524) cells were routinely passaged in DMEM (Gibco BRL, 41966) plus 10% foetal calf serum (FCS), 1% L-glutamine (Gibco BRL, 25030) to a confluence not greater than 80%. To undertake the assay, NIH 3T3's were seeded at 1×10^4 cells/well in DMEM plus 10% foetal calf serum, 1% L-glutamine in 96 well plates (Costar, 3904) and incubated at 37° C. (+5% CO2) in a humidified incubator. Once the cells had fully adhered (typically following 4-5 hours incubation) the media was removed from each well and the cells gently washed with 100 μl warm serum free media. 90 μl of serum free DMEM plus 1% L-glutamine was then added to each well and the plates were returned to a humidified 37° C. (+5% CO2) incubator. The following day, the plates were dosed with 10 μl compound (diluted from 10 mM stock in DMSO using serum free DMEM) and the plates were returned to a humidified 37° C. (+5% CO2) incubator for one hour. NIH 3T3 cells were then stimulated with a final concentration of 3 ng/ml bFGF (Sigma, F0291) for 20 minutes at 37° C. Following stimulation the cells were fixed by adding formaldehyde (4% v/v final concentration) and incubating at room temperature for 20 minutes. The fixative solution was then removed and the wells were washed twice with 100 μl phosphate buffered saline (PBS/A) before permeabilising the cells by the addition of 50 μl/well 0.1% triton/PBS/A for 10 minutes at room temperature. The permeabilisation solution was then removed and the cells washed twice more with 100 μl/well PBS/A before the addition of 50 μl/well anti-phospho p44/42 antibody (Cell Signalling Technology, 9106), diluted 1/500 with PBS/A plus 10% FCS. The anti-phospho p44/42 antibody recognises Erk phosphorylated at threonine 202 and tyrosine 204. Following incubation at room temperature for 2 hours, the antibody solution was removed and the wells were washed twice with 100 μl/well PBS/A. 50 μl/well 1/250 goat anti-mouse alexa fluor 488 secondary antibody (Molecular Probes, A11001) and 1/10000 Hoescht (Molecular Probes, H-3570) diluted with PBS/A plus 10% FCS was added and the plate incubated in the dark at room temperature for one hour. Finally, the plates were washed three times with 100 μl/well PBS/A, leaving the final wash in the wells before sealing the plates. The plates were read at 350 nm and 488 nm using an Arrayscan (Cellomics). […] IC50 value is the concentration of test compound that inhibits 50% of Erk phosphorylation.

FGFR1 active kinase [4] = molecular target: T1, FGFR1 active kinase; assay: FGFR Kinase assay - Caliper Echo Dosing; assay type: biochemical; details: FGFR1 7.2 nM, 408 uM ATP, acoustic dosing; geometric mean of n
[5] = molecular target: T3, transiently expressed FGFR1 IIIc in Cos-1 cells (Homo sapiens, UniProt P11362); assay: Cell FGFR1 - cell based inhibition of transiently expressed FGFR1 IIIc phosphorylation; details: phospho-FGFR1
T3 construct: The clone was full-length, wild-type FGFR1 IIIc isoform; host or cells: Cos-1
Excerpt: Cell FGFR1—Cell Based Inhibition of Transiently Expressed FGFR1 IIIc Phosphorylation (Measured Using Phospho-Specific Primary and Fluorescent Secondary Antibodies).
This assay is designed to detect inhibitors of transiently expressed FGFR1 phosphorylation by antibody staining of fixed cells detected using ArrayScan technology. (For a description of Array Scan technology see http://www.cellomics.com/content/menu/Arrayscan/)
Cos-1 cells were routinely passaged in DMEM (Gibco BRL, 41966) plus 3% foetal calf serum (FCS), 1% L-glutamine (Gibco BRL, 25030) to a confluence of 80%. To undertake the assay, Cos-1 cells were harvested at 90-95% confluence for cell transfection. […]
The harvested Cos-1 cells are counted using a coulter counter and diluted further with 1% FCS/DMEM to 2.5×10^5 cells/ml. […]
Following incubation at room temperature for 1 hour, the antibody solution was removed and the wells were washed once with 200 ul/well PBS/A. Then 40 μl 1/500 secondary antibody (A111005; goat anti-mouse 594) solution and 1/10000 Hoechst (diluted together in PBS/A with 10% FCS+0.1% Tween 20) were added and the plate incubated in the dark at room temperature for one hour. […] The plates were read on an Arrayscan (Cellomics). […]

[6] = FGFR1 […], 408 uM ATP, mean of n as printed, read-out: FGFR Kinase assay - Caliper, IC50
[7] = FGFR inhibition test, Caliper, read-out: Activity class (FGFR Kinase assay - Caliper)
[8] = FGFR inhibition test, Elisa, read-out: Activity class (FGFR Kinase assay - Elisa)
[9] = NIH3T3, 3 ng/ml bFGF, read-out: Activity class (Cell pErk)
[10] = polyEAY substrate, 160 μM ATP, read-out: FGFR Kinase assay - Elisa, IC50

T1 sequence (P11362 22-822): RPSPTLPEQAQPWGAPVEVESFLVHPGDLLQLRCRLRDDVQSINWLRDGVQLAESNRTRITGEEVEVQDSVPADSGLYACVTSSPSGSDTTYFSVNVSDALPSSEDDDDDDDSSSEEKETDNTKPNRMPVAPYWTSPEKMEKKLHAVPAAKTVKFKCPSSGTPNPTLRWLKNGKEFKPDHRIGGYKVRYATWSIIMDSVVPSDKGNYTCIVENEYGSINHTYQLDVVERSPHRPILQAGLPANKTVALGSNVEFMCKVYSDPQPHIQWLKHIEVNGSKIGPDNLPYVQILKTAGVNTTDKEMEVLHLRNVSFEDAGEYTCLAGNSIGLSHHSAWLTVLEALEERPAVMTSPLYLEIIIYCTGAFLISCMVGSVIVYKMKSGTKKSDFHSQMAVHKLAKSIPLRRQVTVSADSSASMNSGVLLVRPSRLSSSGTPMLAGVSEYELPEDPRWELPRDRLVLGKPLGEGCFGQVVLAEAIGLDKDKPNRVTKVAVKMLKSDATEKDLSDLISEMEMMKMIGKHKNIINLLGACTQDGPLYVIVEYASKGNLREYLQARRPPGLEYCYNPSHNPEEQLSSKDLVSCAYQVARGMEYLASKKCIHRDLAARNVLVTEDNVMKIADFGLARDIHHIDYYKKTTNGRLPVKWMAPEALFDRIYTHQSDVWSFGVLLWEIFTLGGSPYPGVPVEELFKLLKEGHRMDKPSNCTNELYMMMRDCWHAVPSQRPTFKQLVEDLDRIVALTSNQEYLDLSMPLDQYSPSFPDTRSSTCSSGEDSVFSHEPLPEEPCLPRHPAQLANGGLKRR
T2 sequence (P11362 458-765 C488A/C584S): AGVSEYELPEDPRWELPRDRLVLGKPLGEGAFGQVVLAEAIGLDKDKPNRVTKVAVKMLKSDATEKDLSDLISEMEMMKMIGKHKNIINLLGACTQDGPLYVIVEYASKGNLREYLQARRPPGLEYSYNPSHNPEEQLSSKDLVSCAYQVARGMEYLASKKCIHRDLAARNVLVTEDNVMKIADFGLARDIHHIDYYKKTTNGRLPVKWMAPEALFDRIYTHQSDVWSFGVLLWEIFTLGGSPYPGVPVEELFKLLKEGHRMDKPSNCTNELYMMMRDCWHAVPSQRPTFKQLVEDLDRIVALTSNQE
T3 sequence (P11362 22-822): as the sequence (P11362 22-822) above

CN1CCN(c2ccc(C(=O)Nc3cc(CCc4cccnc4)n[nH]3)cc2)CC1 [Example 7, 4-(4-methylpiperazin-1-yl)-N-[5-(2-pyridin-3-ylethyl)-2H-pyrazol-3-yl]benzamide]
IC50 (FGFR1 active kinase [1]; [6]): 47 nM
IC50 (FGFR1 active kinase [1]; [7]): < 300 nM
IC50 [2, 8]: < 300 nM
IC50 [3, 9]: 1000 to 30000 nM

COc1cc(CCc2cc(NC(=O)c3ccc(N4CCN(C)CC4)cc3)[nH]n2)cc(OC)c1 [Example 10, N-[5-[2-(3,5-dimethoxyphenyl)ethyl]-2H-pyrazol-3-yl]-4-(4-methylpiperazin-1-yl)benzamide]
IC50 (FGFR1 active kinase [4]): 0.85 nM
IC50 [2, 8]: < 300 nM
IC50 [3, 9]: < 300 nM

CN1CCN(c2ccc(C(=O)Nc3cc(CCc4ccco4)n[nH]3)cc2)CC1 [Example 8, N-[5-[2-(2-furyl)ethyl]-2H-pyrazol-3-yl]-4-(4-methylpiperazin-1-yl)benzamide]
IC50 (FGFR1 active kinase [1]; [7]): < 300 nM
IC50 [2, 8]: < 300 nM
IC50 [2, 10]: 79.5 nM
IC50 [3, 9]: < 300 nM

CCNc1ccc(C(=O)Nc2cc(CCc3cccc(OC)c3)n[nH]2)cn1 [Example 18, 6-Ethylamino-N-{5-[2-(3-methoxy-phenyl)-ethyl]-2H-pyrazol-3-yl}-nicotinamide]
IC50 (FGFR1 active kinase [1]; [6]): 540 nM
IC50 (FGFR1 active kinase [1]; [7]): 300 to 1000 nM
IC50 [2, 8]: 300 to 1000 nM
IC50 [3, 9]: 300 to 1000 nM
IC50 ([3]; NIH3T3, footnote example, read-out: Cell pErk, value in table footnote): 877 nM

COc1cccc(CCc2cc(NC(=O)c3ccc(N4CCN(C)CC4)cc3)[nH]n2)c1 [Example 11, N-[5-[2-(3-methoxyphenyl)ethyl]-2H-pyrazol-3-yl]-4-(4-methylpiperazin-1-yl)benzamide]
IC50 [2, 8]: < 300 nM
IC50 [2, 10]: 82.8 nM
IC50 [3, 9]: < 300 nM

COc1cc(CCc2cc(NC(=O)c3ccccc3)[nH]n2)cc(OC)c1 [Example 2, N-[5-[2-(3,5-dimethoxyphenyl)ethyl]-2H-pyrazol-3-yl]benzamide]
IC50 (FGFR1 active kinase [1]; [6]): 140 nM
IC50 [3, 9]: < 300 nM

COc1cc(CCc2cc(NC(=O)c3ccc(OCCN4CCC(F)(F)CC4)cc3)n[nH]2)cc(OC)c1 [Example 55, 4-[2-(4,4-Difluoro-1-piperidyl)ethoxy]-N-[5-[2-(3,5-dimethoxyphenyl)ethyl]-1H-pyrazol-3-yl]benzamide]
IC50 [5]: 460 nM

CN1CCN(c2ccc(C(=O)Nc3cc(CCc4ccccc4)n[nH]3)cc2)CC1 [Example 1, 4-(4-methylpiperazin-1-yl)-N-(5-phenethyl-2H-pyrazol-3-yl)benzamide]
IC50 [2, 8]: < 300 nM
IC50 [2, 10]: 220 nM
IC50 [3, 9]: 300 to 1000 nM

CN1CCN(c2ccc(C(=O)Nc3cc(CCc4ccoc4)n[nH]3)cc2)CC1 [Example 9, N-[5-[2-(3-furyl)ethyl]-2H-pyrazol-3-yl]-4-(4-methylpiperazin-1-yl)benzamide]
IC50 (FGFR1 active kinase [1]; [6]): 137 nM
IC50 (FGFR1 active kinase [1]; [7]): < 300 nM
IC50 [2, 8]: < 300 nM
IC50 [3, 9]: 300 to 1000 nM

C#CCNc1ccc(C(=O)Nc2cc(CCc3cccc(OC)c3)n[nH]2)nc1 [Example 17, N-[5-[2-(3-Methoxyphenyl)ethyl]-2H-pyrazol-3-yl]-5-(prop-2-ynylamino)pyridine-2-carboxamide]
IC50 (FGFR1 active kinase [1]; [6]): 660 nM
IC50 (FGFR1 active kinase [1]; [7]): 300 to 1000 nM
IC50 [2, 8]: 300 to 1000 nM
